Read-outs that look alike come from different tables or passages of the source.
Legend:
[1] = target: FLT3 (Homo sapiens (Human), UniProt P36888); experiment: Biochemical HTRF kinase assay, FLT3; settings: for IC50: recombinant human protein; for FLT3 Fold: selectivity: IC50 of FLT3 as multiple of IC50 of CSF-1R
[2] = target: PDGFRβ (Homo sapiens (Human), UniProt P09619); experiment: Biochemical HTRF kinase assay, PDGFRβ; settings: for IC50: recombinant human protein, read-out: PDGFR-1β IC50; for PDGFR-1β Fold: selectivity: IC50 of PDGFR-1β as multiple of IC50 of CSF-1R;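 on all read-outs here: kinase reaction with substrate/ATP mix run 1 h at room temperature in 384-well format, HTRF signal detection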
Sequence of PDGFRβ (P09619 33-1106): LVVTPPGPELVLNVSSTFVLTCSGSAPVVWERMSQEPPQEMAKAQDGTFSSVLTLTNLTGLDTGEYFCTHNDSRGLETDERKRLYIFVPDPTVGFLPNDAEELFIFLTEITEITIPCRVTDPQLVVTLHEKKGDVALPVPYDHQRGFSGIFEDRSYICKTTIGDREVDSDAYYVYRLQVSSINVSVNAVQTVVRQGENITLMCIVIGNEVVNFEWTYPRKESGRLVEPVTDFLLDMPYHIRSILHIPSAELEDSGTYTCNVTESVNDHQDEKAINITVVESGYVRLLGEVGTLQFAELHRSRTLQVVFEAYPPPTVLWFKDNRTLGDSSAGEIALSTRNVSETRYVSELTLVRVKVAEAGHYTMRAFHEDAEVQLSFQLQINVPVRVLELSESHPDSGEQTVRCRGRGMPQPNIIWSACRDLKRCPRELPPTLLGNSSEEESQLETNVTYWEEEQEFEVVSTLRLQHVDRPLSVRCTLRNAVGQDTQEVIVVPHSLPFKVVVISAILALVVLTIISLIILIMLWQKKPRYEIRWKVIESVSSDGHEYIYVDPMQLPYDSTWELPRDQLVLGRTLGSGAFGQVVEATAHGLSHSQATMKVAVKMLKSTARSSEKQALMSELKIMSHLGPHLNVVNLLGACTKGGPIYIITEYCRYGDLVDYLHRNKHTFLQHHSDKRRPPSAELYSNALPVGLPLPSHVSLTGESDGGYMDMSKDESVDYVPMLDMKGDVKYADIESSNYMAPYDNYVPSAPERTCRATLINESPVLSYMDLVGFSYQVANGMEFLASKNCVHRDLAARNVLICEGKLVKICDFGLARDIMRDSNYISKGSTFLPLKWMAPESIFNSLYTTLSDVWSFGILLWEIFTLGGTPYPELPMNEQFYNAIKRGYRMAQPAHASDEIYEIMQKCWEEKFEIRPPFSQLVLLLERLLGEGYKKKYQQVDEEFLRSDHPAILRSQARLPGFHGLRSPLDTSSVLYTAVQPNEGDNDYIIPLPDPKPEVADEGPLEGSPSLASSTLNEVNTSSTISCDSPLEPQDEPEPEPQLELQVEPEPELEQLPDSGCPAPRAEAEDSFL

[3] = target: c-Kit (Homo sapiens (Human), UniProt P10721); experiment: Biochemical HTRF kinase assay, c-Kit; settings: for IC50: recombinant human protein, read-out: cKit IC50; for cKit Fold: selectivity: IC50 of cKit as multiple of IC50 of CSF-1R;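 on all read-outs here: enzyme reaction with substrate and ATP run in 384-well plates for 1 hour at room temperature, kinase activity detected by HTRF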
Sequence of c-Kit (P10721 26-976): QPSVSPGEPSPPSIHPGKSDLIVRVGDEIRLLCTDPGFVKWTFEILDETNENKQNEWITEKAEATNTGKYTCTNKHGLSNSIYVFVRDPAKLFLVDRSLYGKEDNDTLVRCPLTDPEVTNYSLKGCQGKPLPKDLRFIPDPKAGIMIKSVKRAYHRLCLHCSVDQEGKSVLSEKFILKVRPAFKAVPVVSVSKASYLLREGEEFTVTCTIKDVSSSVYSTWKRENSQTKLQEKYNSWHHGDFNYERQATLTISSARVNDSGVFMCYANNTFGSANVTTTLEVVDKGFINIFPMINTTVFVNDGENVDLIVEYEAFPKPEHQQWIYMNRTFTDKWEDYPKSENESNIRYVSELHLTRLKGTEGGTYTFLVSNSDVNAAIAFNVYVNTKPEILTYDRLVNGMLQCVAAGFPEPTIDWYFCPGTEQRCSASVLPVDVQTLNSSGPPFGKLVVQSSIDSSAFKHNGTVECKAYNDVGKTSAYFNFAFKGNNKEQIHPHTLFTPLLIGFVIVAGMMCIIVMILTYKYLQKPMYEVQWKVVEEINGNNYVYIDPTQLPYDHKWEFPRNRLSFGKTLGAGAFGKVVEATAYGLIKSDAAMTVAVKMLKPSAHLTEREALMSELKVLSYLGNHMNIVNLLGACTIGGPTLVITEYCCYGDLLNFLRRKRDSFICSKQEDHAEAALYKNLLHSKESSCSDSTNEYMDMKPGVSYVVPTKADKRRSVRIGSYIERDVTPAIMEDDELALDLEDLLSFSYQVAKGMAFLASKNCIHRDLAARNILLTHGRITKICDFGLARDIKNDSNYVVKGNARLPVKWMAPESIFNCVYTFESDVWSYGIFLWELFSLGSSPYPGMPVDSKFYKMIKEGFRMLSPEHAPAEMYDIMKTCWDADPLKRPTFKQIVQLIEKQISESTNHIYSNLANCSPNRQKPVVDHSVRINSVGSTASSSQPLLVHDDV

[4] = In vivo PK study (plasma and brain exposure); parameters: species or system CD1 mouse; settings: for Kp uu / half-life / AUC(0-t) / AUC(0-inf) / clearance / Vd / bioavailability / Cmax / Tmax: male; for Kp uu: CD1, brain, BBB penetration; for half-life: CD1, mouse; for clearance: read-out: IV-2mpk CL (converted); for Vd: read-out: IV-2mpk VSS; for bioavailability: p.o. 45 mg/kg vs i.v. 2 mg/kg; for Cmax: read-out: PO-45mpk Cmax; for Tmax: read-out: PO-45mpk Tmax
Method: The PK profiles were determined in CD1 mouse, and all the procedures and protocols were in accordance with the National Institutes of Health Guide for the Care and Use of Laboratory Animals. The CD1 mouse were purchased from JH Laboratory Animal Co. LTD. The CD1 mouse (23-30 g, 6-8 weeks, male) were randomized and divided into five groups consisting of 21 mouse per group. The test compounds that have been formulated were subjected to PK studies. The test compounds were administrated via p.o. at 45 mg/kg and i.v. at 2 mg/kg. […] The blood samples were placed on wet ice, and serum was collected after centrifugation. Serum samples were frozen and stored at −70° C. The brain samples were dried on filtrate paper, and snap frozen on dry ice and further stored at −70° C. Then, the blood samples and brain samples were further analyzed by LC-MS/MS (Triple Quad 6500+).

[5] = system: Ba/F3_CSF-1R (stably expressing human CSF-1R kinase); experiment: Cell proliferation assay, Ba/F3_CSF-1R; assay type: cell-based; settings: BaF3, 72 h
[6] = system: primary rat microglia; experiment: Primary rat microglia survival; assay type: cell-based; settings: 3 days of exposure, Iba1 staining
Text: To assess the potency of CSF1R inhibitors disclosed herein we isolated and expanded primary brain glia from rat cortices in-vitro. This glial culture is about 20% microglia that is supported mostly by astrocytes that make up the rest of the population. The brain glia was exposed to CSF1R inhibitors for 3 days followed by paraformaldehyde fixation and immunofluorescence staining for the microglia marker, Iba1. The glial was imaged using a high-content-imager and the changes in microglia content were quantified. Using GraphPad Prism, a four-parameter logistic regression was applied to determine the potency of the CSF1R inhibitors.

[7] = target: CSF-1R (Homo sapiens (Human), UniProt P07333); experiment: Biochemical HTRF kinase assay, CSF-1R; settings: recombinant human CSF-1R;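 further: enzyme incubated with inhibitor plus a substrate and ATP mix for one hour at room temperature before HTRF detection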
Sequence of CSF-1R (P07333 20-972): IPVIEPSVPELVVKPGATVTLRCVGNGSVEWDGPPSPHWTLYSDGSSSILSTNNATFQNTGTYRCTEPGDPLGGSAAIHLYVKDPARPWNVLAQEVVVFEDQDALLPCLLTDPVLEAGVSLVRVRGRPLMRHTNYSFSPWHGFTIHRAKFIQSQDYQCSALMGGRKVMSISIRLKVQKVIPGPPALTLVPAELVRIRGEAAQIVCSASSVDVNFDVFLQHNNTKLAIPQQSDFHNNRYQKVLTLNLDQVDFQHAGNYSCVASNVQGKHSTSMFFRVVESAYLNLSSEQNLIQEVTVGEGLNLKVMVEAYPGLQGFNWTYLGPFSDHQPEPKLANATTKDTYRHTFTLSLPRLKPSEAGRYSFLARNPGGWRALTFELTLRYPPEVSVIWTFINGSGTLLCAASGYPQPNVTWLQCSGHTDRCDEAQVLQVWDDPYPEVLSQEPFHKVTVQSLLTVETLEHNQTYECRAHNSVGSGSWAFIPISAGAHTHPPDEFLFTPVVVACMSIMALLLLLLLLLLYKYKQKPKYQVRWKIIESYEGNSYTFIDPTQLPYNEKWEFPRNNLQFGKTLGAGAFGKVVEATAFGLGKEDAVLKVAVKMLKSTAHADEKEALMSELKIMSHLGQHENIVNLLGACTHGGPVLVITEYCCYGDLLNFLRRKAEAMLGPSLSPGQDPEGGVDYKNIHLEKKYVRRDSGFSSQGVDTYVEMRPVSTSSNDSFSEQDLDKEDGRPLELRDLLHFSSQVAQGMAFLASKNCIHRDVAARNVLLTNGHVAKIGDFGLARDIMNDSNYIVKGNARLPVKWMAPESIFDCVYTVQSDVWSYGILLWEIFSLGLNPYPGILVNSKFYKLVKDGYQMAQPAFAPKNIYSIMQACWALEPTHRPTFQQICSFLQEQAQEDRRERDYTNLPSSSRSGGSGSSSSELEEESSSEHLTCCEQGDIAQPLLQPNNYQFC

[8] = Brain protein binding study; assay type: in vitro ADME; settings: mouse brain homogenate, equilibrium dialysis 4 hours
Method: On the day of experiment, brain homogenate was thawed in water bath at room temperature and then incubated at 37° C. for 10 min before use. Pretreat the dialysis membrane according to the manufacturer's instructions: the dialysis membrane strips were soaked in ultra pure water at room temperature for approximately 1 hr. After that, each membrane strip that contains 2 membranes was separated and soaked in ethanol:water (20:80 v:v) for approximately 20 min, after which it was ready for use or was stored in the solution at 2-8° C. for up to 1 month. Prior to the experiment, the membrane was rinsed and soaked for 20 min in ultra pure water for use. Then working solutions (400 μM) of test compound and control compound were prepared. Aliquots of working solutions (3 μL) were spiked into blank matrix (597 μL) to achieve final concentrations and mixed thoroughly. Aliquots of 50 μL loading matrix containing test compound or control compound in triplicate was transferred to Sample Collection Plate, respectively. The samples were matched with opposite blank buffer to obtain a final volume of 100 μL with a volume ratio of matrix:Dialysis Buffer (1:1, v:v) in each well immediately. The stop solution was added to these T0 samples of test compound and control compound. The plate was sealed and shaked at 800 rpm for 10 min. Then these T0 samples were stored at 2-8° C. pending further process along with other post-dialysis samples. The dialysis instrument was assembled following manufacture's instructions. An aliquot of 100 μL of the loading matrix containing test compound or control compound was transferred to the donor side of each dialysis well in triplicate and 100 μL of the Dialysis Buffer was loaded to the receiver side of the well. Then the plate was rotated at approximately 100 rpm in a humidified incubator with 5% CO2 at 37±1° C. for 4 hours. At the end of the dialysis, aliquots of 50 μL samples from the buffer side and matrix side of the dialysis device were taken into new 96-well plates (Sample Collection Plates). An equal volume of opposite blank matrix (buffer or matrix) in each sample was added to reach a final volume of 100 μL with volume ratio of matrix:Dialysis Buffer at 1:1 (v:v) in each well. All samples were further processed by protein precipitation for LC/MS/MS analysis.

[9] = system: human iPSC-derived microglia (hiPSC-MG); experiment: hiPSC-MG survival (Presto-Blue viability); assay type: cell-based; settings: 48 h treatment; for hiPSC-MG survival: FIG. 7B
[10] = system: EOC2 cell; experiment: Cell proliferation assay, EOC2; assay type: cell-based, mouse; settings: Mus musculus, 72 h
[11] = serum, iv, 2 mg/kg, CD1 mouse, i.v. 2 mg/kg, read-out: IV-2mpk T1/2 (converted)
[12] = serum, po, 45 mg/kg, CD1 mouse, p.o. 45 mg/kg, read-out: PO-45mpk T1/2 (converted)
[13] = CD1, po, mouse, p.o. 45 mg/kg, brain, read-out: PO-45mpk AUClast-brain
[14] = CD1, po, mouse, p.o. 45 mg/kg, plasma, Tables 7 and 8, read-out: PO-45mpk AUClast-plasma
[15] = serum, iv, CD1 mouse, i.v. 2 mg/kg, read-out: IV-2mpk AUCInf
[16] = serum, iv, CD1 mouse, i.v. 2 mg/kg, read-out: IV-2mpk AUClast
[17] = serum, iv, CD1 mouse, i.v. 2 mg/kg
[18] = serum, po, CD1 mouse, p.o. 45 mg/kg, Tables 5 and 6, read-out: PO-45mpk AUClast
[19] = serum, po, CD1 mouse, p.o. 45 mg/kg, read-out: PO-45mpk AUCInf
[20] = serum, po, CD1 mouse, p.o. 45 mg/kg
[21] = Ba/F3_CSF-1R cells, 72 hours treatment, read-out: CSF-1R BaF3 EC50
[22] = EOC2 cells, 72 hours treatment, read-out: ECO2 EC50
[23] = read-out: CSF-1R BaF3 EC50 (nM)

Sequence of FLT3 (P36888 27-993): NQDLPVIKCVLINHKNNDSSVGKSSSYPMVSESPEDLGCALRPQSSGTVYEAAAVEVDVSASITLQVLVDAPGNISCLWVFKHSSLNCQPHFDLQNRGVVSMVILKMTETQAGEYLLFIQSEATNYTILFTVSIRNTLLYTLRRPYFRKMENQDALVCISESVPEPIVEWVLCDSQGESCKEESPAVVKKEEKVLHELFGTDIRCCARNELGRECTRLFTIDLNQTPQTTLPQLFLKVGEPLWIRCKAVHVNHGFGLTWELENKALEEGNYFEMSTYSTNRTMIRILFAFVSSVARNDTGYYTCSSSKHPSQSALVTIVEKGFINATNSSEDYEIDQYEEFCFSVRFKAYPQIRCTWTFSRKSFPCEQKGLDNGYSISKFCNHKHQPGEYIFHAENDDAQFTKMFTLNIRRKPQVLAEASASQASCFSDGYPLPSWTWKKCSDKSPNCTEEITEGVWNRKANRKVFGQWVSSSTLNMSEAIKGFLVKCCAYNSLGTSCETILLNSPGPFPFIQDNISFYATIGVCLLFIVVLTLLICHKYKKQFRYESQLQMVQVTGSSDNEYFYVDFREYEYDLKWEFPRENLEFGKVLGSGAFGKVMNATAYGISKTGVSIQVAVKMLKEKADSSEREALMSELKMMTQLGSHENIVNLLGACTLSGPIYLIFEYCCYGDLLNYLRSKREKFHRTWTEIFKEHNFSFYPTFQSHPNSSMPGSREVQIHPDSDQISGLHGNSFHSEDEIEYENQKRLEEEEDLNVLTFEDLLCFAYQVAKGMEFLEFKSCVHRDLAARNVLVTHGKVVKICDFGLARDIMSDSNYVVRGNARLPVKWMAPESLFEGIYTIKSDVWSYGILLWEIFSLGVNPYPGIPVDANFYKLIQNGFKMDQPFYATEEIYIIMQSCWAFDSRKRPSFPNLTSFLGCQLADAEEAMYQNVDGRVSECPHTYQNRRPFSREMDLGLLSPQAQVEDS

SMILES	IC50 [2] [nM]	PDGFR-1β Fold [2] [fold]	IC50 [3] [nM]	cKit Fold [3] [fold]	Kp uu ([4]; po, mouse, p.o. 45 mg/kg)	half-life [4, 11] [min]	half-life [4, 12] [min]	AUC(0-t) [4, 13] [ng·h/mL]	AUC(0-t) [4, 14] [ng·h/mL]	AUC(0-inf) [4, 15] [ng·h/mL]	AUC(0-t) [4, 16] [ng·h/mL]	clearance [4, 17] [mL/min/kg]	Vd [4, 17] [L/kg]	bioavailability ([4]; serum, po, CD1 mouse) [%]	AUC(0-t) [4, 18] [ng·h/mL]	Cmax [4, 20] [ng/mL]	Tmax [4, 20] [min]	IC50 ([7]; Table 2) [nM]	IC50 ([7]; Table 3) [nM]	BPB-mouse (Bound) (%) [8] [%]	further results
COc1ccc(COc2ncc(Cc3ccnc4cc(OC)cnc34)cc2OC)nc1 [Example 16, 3-methoxy-8-((5-methoxy-6-((5-methoxypyridin-2-yl)methoxy)pyridin-3-yl)methyl)-1,5-naphthyridine]	> 1000	>100	881	>100	1.1	151	114	76800	210000	4460	4460	7.47	0.955	215	216000	31400	60	2.1	2.1	98.10	IC50 [1]: > 1000 nM; FLT3 Fold [1]: >100 fold; IV-2mpk CL ([4]; CD1 mouse, i.v. 2 mg/kg): 0.448 L/h/kg; IV-2mpk T1/2 ([4]; CD1 mouse, i.v. 2 mg/kg): 2.52 h; AUC(0-inf) [4, 19]: 216000 ng·h/mL; EC50 [5, 21]: 61.7 nM; primary rat microglia survival [6]: dose-dependent inhibition of primary rat microglia survival; hiPSC-MG survival IC50 compared with BLZ945 [9]: lower than that of BLZ945; IC50 ([9]; Homo sapiens, Microglia): 31.5 nM; EC50 [10, 22]: 39.2 nM
COc1cnc2c(Cc3cnc(OCc4cc5n(n4)CCOC5)c(OC)c3)ccnc2c1 [Example 73, 2-(((3-methoxy-5-((7-methoxy-1,5-naphthyridin-4-yl)methyl)pyridin-2-yl)oxy)methyl)-6,7-dihydro-4H-pyrazolo[5,1-c][1,4]oxazine]	> 1000	>100	> 1000	>100	0.67	151	94.2	31800	214000	9090	9090	3.67	0.461	98.8	202000	100000	30	3.3	3.3	95.5	IC50 [1]: > 1000 nM; FLT3 Fold [1]: >100 fold; IV-2mpk T1/2 ([4]; CD1 mouse, i.v. 2 mg/kg): 2.56 h; AUC(0-inf) [4, 19]: 202000 ng·h/mL; EC50 [5, 23]: 73.1 nM; primary rat microglia survival [6]: dose-dependent inhibition of primary rat microglia survival; hiPSC-MG survival IC50 compared with BLZ945 [9]: lower than that of BLZ945; hiPSC-MG survival [9]: dose-dependent inhibition of hiPSC-MG survival; EC50 ([10]; read-out: ECO2 EC50 (nM)): 47.5 nM
COc1ccc(COc2ncc(Cc3ccnc4cc(N5CCN(C)CC5)cnc34)cc2OC)nc1 [Example 116]	> 1000	>100	> 1000	>100	0.99	385	292	4250	4620	578	566	57.7	9.54	42.1	5370	2310	15	3	3	95.5	IC50 [1]: > 1000 nM; FLT3 Fold [1]: >100 fold; AUC(0-inf) [4, 19]: 5480 ng·h/mL; EC50 [5, 21]: 33.8 nM; EC50 [10, 22]: 10 nM
COc1cnc2c(Cc3cnc(OCc4cc5n(n4)C[C@H](OC)C5)c(OC)c3)ccnc2c1 [Example 136, (R)-3-methoxy-8-((5-methoxy-6-((5-methoxy-5,6-dihydro-4H-pyrrolo[1,2-b]pyrazol-2-yl)methoxy)pyridin-3-yl)methyl)-1,5-naphthyridine]	> 1000	>100	> 1000	>100	0.94	46.6	–	16200	93200	4940	4940	6.75	0.274	77.1	85700	51200	30	5	5	97.3	EC50 [5, 23]: 66.2 nM; primary rat microglia survival [6]: dose-dependent inhibition of primary rat microglia survival; hiPSC-MG survival [9]: dose-dependent inhibition of hiPSC-MG survival; EC50 ([10]; read-out: ECO2 EC50 (nM)): 94.8 nM
COc1ccc(COc2ncc(Cc3ccnc4cc(-c5ccn(C)n5)cnc34)cc2OC)nc1 [Example 134, 8-((5-methoxy-6-((5-methoxypyridin-2-yl)methoxy)pyridin-3-yl)methyl)-3-(1-methyl-1H-pyrazol-3-yl)-1,5-naphthyridine]	394	59.7	–	–	0.75	83.4	112	44400	88400	1890	1860	17.7	1.45	227	96400	18100	30	6.6	6.6	98.8	AUC(0-inf) [4, 19]: 96500 ng·h/mL; EC50 [5, 23]: 7.1 nM; primary rat microglia survival [6]: dose-dependent inhibition of primary rat microglia survival; hiPSC-MG survival IC50 compared with BLZ945 [9]: lower than that of BLZ945; hiPSC-MG survival [9]: dose-dependent inhibition of hiPSC-MG survival; EC50 [10, 22]: 5.5 nM

From patent publication US20250360145A1, “CSF-1R INHIBITORS AND USES THEREOF” (Myrobalan Therapeutics, Inc., priority 2022, published 2025)
